Patent US12116388B2, “Amylin receptor agonists” (Novo Nordisk A/S, priority 2022, dated 2024)
Starred links: 1 amine or outer side, 2 acyl side, 3 side chain; linkers in the order of their positions; H or OH if unused. Residues, ends and D or L forms follow the SMILES beside them. *: point of attachment. C20 diacid = O=C(O)CCCCCCCCCCCCCCCCCCC(=O)*; C18 diacid = O=C(O)CCCCCCCCCCCCCCCCC(=O)*; γGlu = O=C(O)[C@H](CCC(=O)[*:2])N[*:1]

Target: T1, human calcitonin receptor (hCTR) (Homo sapiens, UniProt P30988)
T1 construct: host or cells: BHK (Baby Hamster Kidney), Hollex-1 cell line
T1 sequence (P30988 25-474): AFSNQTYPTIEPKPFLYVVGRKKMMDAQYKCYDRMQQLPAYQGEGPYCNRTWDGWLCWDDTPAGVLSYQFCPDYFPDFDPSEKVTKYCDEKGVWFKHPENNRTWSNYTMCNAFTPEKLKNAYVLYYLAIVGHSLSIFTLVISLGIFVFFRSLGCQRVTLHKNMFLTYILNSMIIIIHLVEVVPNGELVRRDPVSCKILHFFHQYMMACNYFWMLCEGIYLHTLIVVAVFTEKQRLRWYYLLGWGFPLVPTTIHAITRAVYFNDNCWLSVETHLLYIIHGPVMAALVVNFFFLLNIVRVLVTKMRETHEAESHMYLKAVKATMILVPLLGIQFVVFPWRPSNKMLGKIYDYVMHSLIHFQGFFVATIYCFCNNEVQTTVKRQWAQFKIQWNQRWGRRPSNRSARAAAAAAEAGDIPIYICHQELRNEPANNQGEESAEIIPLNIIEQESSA
Experiment: Human calcitonin receptor (hCTR) in vitro potency assay, CRE-luciferase reporter in BHK cells
Format: cell-based
Conditions: BHK hCTR/CRE-Luc cells, 3 hours incubation, assay buffer with 1% ovalbumin; read-out: hCalcR potency, EC50
In short: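 BHK cells stably co-expressing human calcitonin receptor and a CRE-luciferase reporter, seeded the day before, were exposed to 7-fold serial dilutions (7 concentrations, often starting near 10 nM) in DMEM/HEPES/1% ovalbumin buffer for 3 h at 37 °C. Luminescence was then read after SteadyLite Plus addition.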

| Compound | EC50 |
| --- | --- |
| CC[C@H](C)[C@H](NC(=O)[C@@H]1CCCN1C(=O)CNC(=O)[C@H](Cc1ccccc1)NC(=O)[C@H](Cc1c[nH]cn1)NC(=O)[C@H](Cc1c[nH]cn1)NC(=O)[C@H](CC(C)C)NC(=O)[C@H](Cc1ccccc1)NC(=O)[C@H](CCC(=O)O)NC(=O)[C@H](C)NC(=O)[C@H](CC(C)C)NC(=O)[C@H](CCCNC(=N)N)NC(=O)[C@H](CCC(N)=O)NC(=O)[C@@H](NC(=O)[C@H](CCC(N)=O)NC(=O)[C@H](C)NC(=O)[C@@H](NC(=O)[C@H](CO)NC(=O)[C@H](CC(C)C)NC(=O)[C@H](Cc1c[nH]cn1)NC(=O)[C@H](CO)NC(=O)[C@H](C)NC(=O)CC[C@H](NC(=O)CCCCCCCCCCCCCCCCCCC(=O)O)C(=O)O)[C@@H](C)O)[C@@H](C)O)C(=O)N[C@@H](CC(C)C)C(=O)N1CCC[C@H]1C(=O)N1CCC[C@H]1C(=O)N[C@H](C(=O)N[C@@H](CC(=O)O)C(=O)N[C@H](C(=O)NCC(=O)N[C@@H](CO)C(=O)N[C@@H](CCC(=O)O)C(=O)N[C@H](C(=O)N1CCC[C@H]1C(N)=O)[C@@H](C)O)C(C)C)[C@@H](C)O [Compound 4, N^1-[(4S)-4-carboxy-4-(19-carboxynonadecanoylamino)butanoyl]-[Ala1,Ser2,His3,Leu4,Ser5,Ala7,Gln8,Glu14,His17,Pro25,Pro28,Pro29,Asp31,Glu35,Pro37],des-(19-22)-human amylin] ({C20 diacid-γGlu}-ASHLSTAQTQRLAEFLHHFGPILPPTDVGSETP-NH2) | 1.44 pM |
| CC[C@H](C)[C@H](NC(=O)[C@H](C)NC(=O)CNC(=O)[C@H](Cc1ccccc1)NC(=O)[C@@H]1CCCN1C(=O)[C@H](CC(=O)O)NC(=O)[C@H](CO)NC(=O)[C@H](CO)NC(=O)[C@H](Cc1c[nH]cn1)NC(=O)[C@H](Cc1c[nH]cn1)NC(=O)[C@H](CC(C)C)NC(=O)[C@H](Cc1ccccc1)NC(=O)[C@H](CCC(=O)O)NC(=O)[C@H](C)NC(=O)[C@H](CC(C)C)NC(=O)[C@H](CCCNC(=N)N)NC(=O)[C@H](CCC(N)=O)NC(=O)[C@@H](NC(=O)[C@H](CCC(N)=O)NC(=O)[C@H](C)NC(=O)[C@@H](NC(=O)[C@H](CO)NC(=O)[C@H](CC(C)C)NC(=O)[C@H](Cc1c[nH]cn1)NC(=O)[C@H](CO)NC(=O)[C@H](C)NC(=O)CC[C@H](NC(=O)CCCCCCCCCCCCCCCCC(=O)O)C(=O)O)[C@@H](C)O)[C@@H](C)O)C(=O)N1CCC[C@H]1C(=O)N[C@@H](CO)C(=O)N[C@@H](CO)C(=O)N[C@H](C(=O)N[C@@H](CC(=O)O)C(=O)N[C@H](C(=O)NCC(=O)N1CCC[C@H]1C(=O)N[C@@H](CC(=O)O)C(=O)N[C@H](C(=O)N1CCC[C@H]1C(N)=O)[C@@H](C)O)C(C)C)[C@@H](C)O [Compound 8, N^1-[(4S)-4-carboxy-4-(17-carboxyheptadecanoylamino)butanoyl]-[Ala1,Ser2,His3,Leu4,Ser5,Ala7,Gln8,Glu14,His17,Asp21,Pro22,Pro27,Asp31,Pro34,Asp35,Pro37]-human amylin] ({C18 diacid-γGlu}-ASHLSTAQTQRLAEFLHHSSDPFGAIPSSTDVGPDTP-NH2) | 1.44 pM |
| CC[C@H](C)[C@H](NC(=O)[C@H](C)NC(=O)CNC(=O)[C@H](Cc1ccccc1)NC(=O)[C@@H]1CCCN1C(=O)[C@H](CC(=O)O)NC(=O)[C@H](CO)NC(=O)[C@H](CO)NC(=O)[C@H](Cc1c[nH]cn1)NC(=O)[C@H](Cc1c[nH]cn1)NC(=O)[C@H](CC(C)C)NC(=O)[C@H](Cc1ccccc1)NC(=O)[C@H](CCC(=O)O)NC(=O)[C@H](C)NC(=O)[C@H](CC(C)C)NC(=O)[C@H](CCCNC(=N)N)NC(=O)[C@H](CCC(N)=O)NC(=O)[C@@H](NC(=O)[C@H](CCC(N)=O)NC(=O)[C@H](C)NC(=O)[C@@H](NC(=O)[C@H](CO)NC(=O)[C@H](CC(C)C)NC(=O)[C@H](CO)NC(=O)CNC(=O)[C@H](C)NC(=O)CC[C@H](NC(=O)CCCCCCCCCCCCCCCCC(=O)O)C(=O)O)[C@@H](C)O)[C@@H](C)O)C(=O)N1CCC[C@H]1C(=O)N[C@@H](CO)C(=O)N[C@@H](CO)C(=O)N[C@H](C(=O)N[C@@H](CC(=O)O)C(=O)N[C@H](C(=O)NCC(=O)N1CCC[C@H]1C(=O)N[C@@H](CC(=O)O)C(=O)N[C@H](C(=O)N1CCC[C@H]1C(N)=O)[C@@H](C)O)C(C)C)[C@@H](C)O [Compound 10, N^1-[(4S)-4-carboxy-4-(17-carboxyheptadecanoylamino)butanoyl]-[Ala1,Gly2,Ser3,Leu4,Ser5,Ala7,Gln8,Glu14,His17,Asp21,Pro22,Pro27,Asp31,Pro34,Asp35,Pro37]-human amylin] ({C18 diacid-γGlu}-AGSLSTAQTQRLAEFLHHSSDPFGAIPSSTDVGPDTP-NH2) | 1.49 pM |
| CC[C@H](C)[C@H](NC(=O)[C@@H]1CCCN1C(=O)CNC(=O)[C@H](Cc1ccccc1)NC(=O)[C@H](CC(N)=O)NC(=O)[C@H](CC(=O)O)NC(=O)[C@H](CO)NC(=O)[C@H](CO)NC(=O)[C@H](Cc1c[nH]cn1)NC(=O)[C@H](Cc1c[nH]cn1)NC(=O)[C@H](CC(C)C)NC(=O)[C@H](Cc1ccccc1)NC(=O)[C@H](CCC(=O)O)NC(=O)[C@H](C)NC(=O)[C@H](CC(C)C)NC(=O)[C@H](CCCNC(=N)N)NC(=O)[C@H](C)NC(=O)[C@@H](NC(=O)[C@H](CCC(N)=O)NC(=O)[C@H](C)NC(=O)[C@@H](NC(=O)[C@H](CO)NC(=O)[C@H](CC(C)C)NC(=O)[C@H](Cc1c[nH]cn1)NC(=O)[C@H](CO)NC(=O)[C@H](C)NC(=O)CC[C@H](NC(=O)CCCCCCCCCCCCCCCCC(=O)O)C(=O)O)[C@@H](C)O)[C@@H](C)O)C(=O)N[C@@H](CC(C)C)C(=O)N1CCC[C@H]1C(=O)N1CCC[C@H]1C(=O)N[C@H](C(=O)N[C@@H](CC(=O)O)C(=O)N[C@H](C(=O)NCC(=O)N[C@@H](CO)C(=O)N[C@@H](CC(N)=O)C(=O)N[C@H](C(=O)N1CCC[C@H]1C(N)=O)[C@@H](C)O)C(C)C)[C@@H](C)O [Compound 14, N^1-[(4S)-4-carboxy-4-(17-carboxyheptadecanoylamino)butanoyl]-[Ala1,Ser2,His3,Leu4,Ser5,Ala7,Gln8,Ala10,Glu14,His17,Asp21,Pro25,Pro28,Pro29,Asp31,Pro37]-human amylin] ({C18 diacid-γGlu}-ASHLSTAQTARLAEFLHHSSDNFGPILPPTDVGSNTP-NH2) | 1.63 pM |
| CC[C@H](C)[C@H](NC(=O)[C@@H]1CCCN1C(=O)CNC(=O)[C@H](Cc1ccccc1)NC(=O)[C@H](Cc1c[nH]cn1)NC(=O)[C@H](Cc1c[nH]cn1)NC(=O)[C@H](CC(C)C)NC(=O)[C@H](Cc1ccccc1)NC(=O)[C@H](CCC(=O)O)NC(=O)[C@H](C)NC(=O)[C@H](CC(C)C)NC(=O)[C@H](CCCNC(=N)N)NC(=O)[C@H](C)NC(=O)[C@@H](NC(=O)[C@H](CCC(N)=O)NC(=O)[C@H](C)NC(=O)[C@@H](NC(=O)[C@H](CO)NC(=O)[C@H](CC(C)C)NC(=O)[C@H](CCC(=O)O)NC(=O)CNC(=O)[C@H](C)NC(=O)CC[C@H](NC(=O)CCCCCCCCCCCCCCCCC(=O)O)C(=O)O)[C@@H](C)O)[C@@H](C)O)C(=O)N[C@@H](CC(C)C)C(=O)N1CCC[C@H]1C(=O)N1CCC[C@H]1C(=O)N[C@H](C(=O)N[C@@H](CC(=O)O)C(=O)N[C@H](C(=O)NCC(=O)N[C@@H](CO)C(=O)N[C@@H](CCC(=O)O)C(=O)N[C@H](C(=O)N1CCC[C@H]1C(N)=O)[C@@H](C)O)C(C)C)[C@@H](C)O [Compound 16, N^1-[(4S)-4-carboxy-4-(17-carboxyheptadecanoylamino)butanoyl]-[Ala1,Gly2,Glu3,Leu4,Ser5,Ala7,Gln8,Ala10,Glu14,His17,Pro25,Pro28,Pro29,Asp31,Glu35,Pro37],des-(19-22)-human amylin] ({C18 diacid-γGlu}-AGELSTAQTARLAEFLHHFGPILPPTDVGSETP-NH2) | 1.03 pM |
| CC[C@H](C)[C@H](NC(=O)[C@@H]1CCCN1C(=O)CNC(=O)[C@H](Cc1ccccc1)NC(=O)[C@H](Cc1c[nH]cn1)NC(=O)[C@H](Cc1c[nH]cn1)NC(=O)[C@H](CC(C)C)NC(=O)[C@H](Cc1ccccc1)NC(=O)[C@H](CCC(=O)O)NC(=O)[C@H](C)NC(=O)[C@H](CC(C)C)NC(=O)[C@H](CCCNC(=N)N)NC(=O)[C@H](C)NC(=O)[C@@H](NC(=O)[C@H](CCC(N)=O)NC(=O)[C@H](C)NC(=O)[C@@H](NC(=O)[C@H](CO)NC(=O)[C@H](CC(C)C)NC(=O)[C@H](Cc1c[nH]cn1)NC(=O)[C@H](CO)NC(=O)[C@H](C)NC(=O)CC[C@H](NC(=O)CC[C@H](NC(=O)CCCCCCCCCCCCCCCCC(=O)O)C(=O)O)C(=O)O)[C@@H](C)O)[C@@H](C)O)C(=O)N[C@@H](CC(C)C)C(=O)N1CCC[C@H]1C(=O)N1CCC[C@H]1C(=O)N[C@H](C(=O)N[C@@H](CC(=O)O)C(=O)N[C@H](C(=O)NCC(=O)N[C@@H](CO)C(=O)N[C@@H](CCC(=O)O)C(=O)N[C@H](C(=O)N1CCC[C@H]1C(N)=O)[C@@H](C)O)C(C)C)[C@@H](C)O [Compound 17, N^1-[(4S)-4-carboxy-4-[[(4S)-4-carboxy-4-(17-carboxyheptadecanoylamino)butanoyl]amino]butanoyl]-[Ala1,Ser2,His3,Leu4,Ser5,Ala7,Gln8,Ala10,Glu14,His17,Pro25,Pro28,Pro29,Asp31,Glu35,Pro37],des-(19-22)-human amylin] ({C18 diacid-γGlu-γGlu}-ASHLSTAQTARLAEFLHHFGPILPPTDVGSETP-NH2) | 1.15 pM |
